Test results taken from patent US20060153844A1, “Methods to trigger, maintain and manipulate immune responses by targeted administration of biological response modifiers into lymphoid organs” (priority 2004, published 2006).

Tests used:
[1] = test system: p33-specific CD8+ T cells; assay: p33-specific CD8+ T cell function, intracellular interferon-γ by FACS, Imiquimod as adjuvant; assay type: in vivo, C57BL/6 mice; conditions: 10 μg p33, day 8
Method: C57BL/6 mice were immunized with the immunodominant MHC class I binding epitope of the lymphocytic choriomeninigitis virus glycoprotein, p33 (SEQ. ID. No. 11). On day 8 after immunization mice were bled to analyze p33-specific CD8+ T cell function by FACS staining of CD8, CD44 and intracellular interferon-γ production after a 4-hour in vitro stimulation with p33. All groups of mice received the same dose of 10 μg p33. The adjuvant Imiquimod, however, was administered by different routes and in different doses. Mice were either injected intralymphatically with 250 μg or 25 μg of Imiquimod, or they were injected subcutaneously with 250 μg or 25 μg of Imiquimod. Control mice were immunized with p33, but received no Imiquimod.

[2] = including fatigue, malaise, fever, headache, and lymphocytopenia; cited from earlier work
IFN-gamma = IFN-gamma in supernatants of restimulated splenocytes after s.c. peptide in IFA; assay type: in vivo, mice; conditions: subcutaneous immunization in combination with IFA; compared to non-self PSMA 730-739
Method: Alternatively, mice were immunized with the PSMA 288-297 or PSMA 730-739 epitope peptide in IFA and peptide by subcutaneous injection (5 μg peptide in 100 μl, twice, at day 0 and 7). One week after the last administration, splenocytes were stimulated ex vivo with 5 μg (FIG. 7, top panel), 10 μg (FIG. 7, middle panel) and 20 μg/ml (FIG. 7, bottom panel) of peptide for 3 days and the IFN-gamma concentration in cell supernatants measured by ELISA.

Row | Molecule | induction of p33-specific CD8+ T cells ([1]; 250 μg Imiquimod intralymphatically) | induction of p33-specific CD8+ T cells ([1]; 250 μg Imiquimod subcutaneous) | toxicity when systemically administered [2] | immune responsiveness (IFN-gamma) (IFN-gamma)
1 | CC(C)Cn1cnc2c(N)nc3ccccc3c21 [Imiquimod, 1-(2-methylpropyl)-1H-imidazol [4,5-c]quinolin-4-amine] | enhanced induction of p33-specific CD8+ T cells | not after subcutaneous administration | significant toxicity when systemically administered | –
2 | PSMA 288-297: SEQ. ID. No. 5, self epitope conserved between mouse and human (GLPSIPVHPI; Synthetically prepared peptide sequence) | – | – | – | decreased immune responsiveness
